Results from patent US8912186B2, “Allosteric protein kinase modulators” (Universitaet des Saarlandes, priority 2008, dated 2014).

Key:
Format in all cases: biochemical
SGK = molecular target: T1, SGK (Homo sapiens, UniProt O00141); test: cell-free kinase activity assay; conditions: DMSO control set 100%; for remaining activity at 200 µM: read-out: percent of catalytic activity of the Kinase in the presence of compound as compared to the solvent control (DMSO): SGK
T1 sequence (O00141 1-431): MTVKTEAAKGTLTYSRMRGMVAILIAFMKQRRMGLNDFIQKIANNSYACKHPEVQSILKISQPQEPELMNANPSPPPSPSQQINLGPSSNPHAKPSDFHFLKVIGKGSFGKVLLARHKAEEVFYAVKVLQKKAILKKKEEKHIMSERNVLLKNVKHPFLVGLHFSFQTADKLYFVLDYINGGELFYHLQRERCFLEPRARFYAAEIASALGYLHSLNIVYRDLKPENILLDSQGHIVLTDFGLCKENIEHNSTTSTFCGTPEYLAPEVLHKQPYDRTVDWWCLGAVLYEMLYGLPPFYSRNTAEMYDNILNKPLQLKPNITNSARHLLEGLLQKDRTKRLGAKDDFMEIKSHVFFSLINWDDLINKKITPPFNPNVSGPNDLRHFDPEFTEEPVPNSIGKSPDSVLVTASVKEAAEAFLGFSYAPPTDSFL

PKA = PKA (Homo sapiens, UniProt P17612); test: cell-free kinase activity assay; conditions: DMSO control set 100%
S6K = S6K (Homo sapiens, UniProt P23443); test: cell-free kinase activity assay; conditions: DMSO control set 100%; for remaining activity at 200 µM: 200 μM compound
Sequence of S6K (P23443 whole entry): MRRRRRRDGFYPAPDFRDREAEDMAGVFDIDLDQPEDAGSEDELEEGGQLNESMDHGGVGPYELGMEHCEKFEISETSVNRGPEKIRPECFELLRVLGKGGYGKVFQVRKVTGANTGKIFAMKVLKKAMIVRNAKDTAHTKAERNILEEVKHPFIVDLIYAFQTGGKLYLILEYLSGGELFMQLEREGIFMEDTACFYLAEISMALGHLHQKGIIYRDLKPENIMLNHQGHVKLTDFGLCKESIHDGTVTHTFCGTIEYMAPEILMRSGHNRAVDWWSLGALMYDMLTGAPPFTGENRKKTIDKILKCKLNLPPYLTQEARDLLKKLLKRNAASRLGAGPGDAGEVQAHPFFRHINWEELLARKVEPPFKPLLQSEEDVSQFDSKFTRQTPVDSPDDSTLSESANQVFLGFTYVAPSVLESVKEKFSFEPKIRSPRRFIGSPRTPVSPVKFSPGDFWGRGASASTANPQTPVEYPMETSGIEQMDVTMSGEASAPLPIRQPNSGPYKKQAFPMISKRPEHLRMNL

PKBβ = PKBβ (Homo sapiens, UniProt P31751); test: cell-free kinase activity assay; conditions: DMSO control set 100%
Sequence of PKBβ (P31751 whole entry, species assumed): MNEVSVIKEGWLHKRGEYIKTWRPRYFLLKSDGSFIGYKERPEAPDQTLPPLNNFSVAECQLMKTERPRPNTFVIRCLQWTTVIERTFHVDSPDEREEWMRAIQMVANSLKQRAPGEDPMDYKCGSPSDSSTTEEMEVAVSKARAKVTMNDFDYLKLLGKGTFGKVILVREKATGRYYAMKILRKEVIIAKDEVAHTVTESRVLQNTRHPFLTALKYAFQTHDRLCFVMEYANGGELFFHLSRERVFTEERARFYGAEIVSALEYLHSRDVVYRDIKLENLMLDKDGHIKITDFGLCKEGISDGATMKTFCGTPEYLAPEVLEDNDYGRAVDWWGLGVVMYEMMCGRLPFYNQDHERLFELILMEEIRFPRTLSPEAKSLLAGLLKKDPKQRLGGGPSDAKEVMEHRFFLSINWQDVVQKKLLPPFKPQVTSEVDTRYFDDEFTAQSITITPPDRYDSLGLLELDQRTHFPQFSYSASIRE

PKCζ = molecular target: T2, PKCζ (Homo sapiens, UniProt Q05513); test: cell-free kinase activity assay; conditions: DMSO control set 100%; for remaining activity at 50 µM / remaining activity at 200 µM: read-out: percent of catalytic activity of the Kinase in the presence of compound as compared to the solvent control (DMSO): PKCζ
T2 sequence (Q05513 1-592): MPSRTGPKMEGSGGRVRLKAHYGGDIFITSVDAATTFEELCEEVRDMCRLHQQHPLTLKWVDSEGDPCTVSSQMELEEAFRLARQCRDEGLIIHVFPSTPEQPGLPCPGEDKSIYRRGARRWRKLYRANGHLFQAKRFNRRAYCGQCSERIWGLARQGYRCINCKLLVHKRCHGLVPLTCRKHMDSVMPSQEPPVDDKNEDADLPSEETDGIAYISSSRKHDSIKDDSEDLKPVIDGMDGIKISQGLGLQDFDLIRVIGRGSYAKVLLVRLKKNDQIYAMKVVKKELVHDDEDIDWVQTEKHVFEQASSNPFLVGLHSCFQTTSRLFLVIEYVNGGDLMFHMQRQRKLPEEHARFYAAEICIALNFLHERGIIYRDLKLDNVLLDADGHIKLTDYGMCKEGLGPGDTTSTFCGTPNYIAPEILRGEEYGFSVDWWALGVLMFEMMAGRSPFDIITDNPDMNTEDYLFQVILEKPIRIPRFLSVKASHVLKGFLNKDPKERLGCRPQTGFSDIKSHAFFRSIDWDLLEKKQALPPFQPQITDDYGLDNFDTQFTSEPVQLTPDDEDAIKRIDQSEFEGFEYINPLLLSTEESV

PDK1 = molecular target: T3, PDK1 (Homo sapiens, UniProt O15530); test: cell-free kinase activity assay (ATPgamma[32P], T308tide substrate); conditions: for percent of catalytic activity of the Kinase in the presence of compound as compared to the solvent control (DMSO): PDK1 / activity at 50 µM / activity at 200 µM: DMSO control set 100%; for activity at 50 µM / activity at 200 µM: read-out: percent of catalytic activity of the Kinase in the presence of compound as compared to the solvent control (DMSO): PDK1
T3 construct: GST
T3 sequence (O15530 1-556): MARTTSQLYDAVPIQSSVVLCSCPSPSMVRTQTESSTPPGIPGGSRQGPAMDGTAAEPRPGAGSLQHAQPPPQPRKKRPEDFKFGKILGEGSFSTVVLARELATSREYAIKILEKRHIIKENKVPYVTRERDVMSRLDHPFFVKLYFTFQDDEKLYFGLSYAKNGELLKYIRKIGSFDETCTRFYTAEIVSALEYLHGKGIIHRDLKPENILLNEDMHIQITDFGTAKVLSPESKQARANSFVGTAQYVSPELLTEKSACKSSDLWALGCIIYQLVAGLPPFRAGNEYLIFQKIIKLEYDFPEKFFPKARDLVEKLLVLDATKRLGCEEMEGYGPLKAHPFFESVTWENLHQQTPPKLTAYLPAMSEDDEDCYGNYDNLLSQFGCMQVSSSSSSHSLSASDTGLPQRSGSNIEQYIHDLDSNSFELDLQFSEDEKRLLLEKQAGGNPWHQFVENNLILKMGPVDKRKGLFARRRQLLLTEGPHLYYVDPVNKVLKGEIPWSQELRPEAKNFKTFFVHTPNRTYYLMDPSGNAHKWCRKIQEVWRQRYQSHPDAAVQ
Source text: Principle of the cell-free kinase activity assay: In general, the activity of the compounds as protein kinase inhibitors or activators may be assayed in vitro (cell free assay is meant here), in vivo or in a cell line. In vitro assays include assays that determine inhibition or activation of either the phosphorylation activity or ATPase activity of the activated protein kinase. Alternate in vitro assays quantitate the ability of the inhibitor to bind to the protein kinase. Compound binding may be measured by radiolabelling the compound prior to binding, isolating the inhibitor or activator/protein kinase complex and determining the amount of radiolabel bound. Alternatively, inhibitor or activator binding may be determined by running a competition experiment where new compounds are incubated with the protein kinase bound to known radioligands. Newer methods comprise fluorescence polarisation assays and surface plasmon resonance dependent techniques. […] The activity and modulation of activity is measured using a standard ATPgamma[^32P] assay as described earlier. […] The concentration of T308tide is 1 mM and the amount of PDK1 used is 200 ng. Reactions are carried out at room temperature. Reaction is started by addition of ATP-Mg mix and stopped with phosphoric acid after 30 min. Stopped reactions were spotted on to phosphocellulose paper (P81, Whatman) and washed. After drying, the radioactivity associated to the band was quantified.

PRK2 = PRK2 (Homo sapiens, UniProt Q16513); test: cell-free kinase activity assay; conditions: DMSO control set 100%
Sequence of PRK2 (Q16513 whole entry, species assumed): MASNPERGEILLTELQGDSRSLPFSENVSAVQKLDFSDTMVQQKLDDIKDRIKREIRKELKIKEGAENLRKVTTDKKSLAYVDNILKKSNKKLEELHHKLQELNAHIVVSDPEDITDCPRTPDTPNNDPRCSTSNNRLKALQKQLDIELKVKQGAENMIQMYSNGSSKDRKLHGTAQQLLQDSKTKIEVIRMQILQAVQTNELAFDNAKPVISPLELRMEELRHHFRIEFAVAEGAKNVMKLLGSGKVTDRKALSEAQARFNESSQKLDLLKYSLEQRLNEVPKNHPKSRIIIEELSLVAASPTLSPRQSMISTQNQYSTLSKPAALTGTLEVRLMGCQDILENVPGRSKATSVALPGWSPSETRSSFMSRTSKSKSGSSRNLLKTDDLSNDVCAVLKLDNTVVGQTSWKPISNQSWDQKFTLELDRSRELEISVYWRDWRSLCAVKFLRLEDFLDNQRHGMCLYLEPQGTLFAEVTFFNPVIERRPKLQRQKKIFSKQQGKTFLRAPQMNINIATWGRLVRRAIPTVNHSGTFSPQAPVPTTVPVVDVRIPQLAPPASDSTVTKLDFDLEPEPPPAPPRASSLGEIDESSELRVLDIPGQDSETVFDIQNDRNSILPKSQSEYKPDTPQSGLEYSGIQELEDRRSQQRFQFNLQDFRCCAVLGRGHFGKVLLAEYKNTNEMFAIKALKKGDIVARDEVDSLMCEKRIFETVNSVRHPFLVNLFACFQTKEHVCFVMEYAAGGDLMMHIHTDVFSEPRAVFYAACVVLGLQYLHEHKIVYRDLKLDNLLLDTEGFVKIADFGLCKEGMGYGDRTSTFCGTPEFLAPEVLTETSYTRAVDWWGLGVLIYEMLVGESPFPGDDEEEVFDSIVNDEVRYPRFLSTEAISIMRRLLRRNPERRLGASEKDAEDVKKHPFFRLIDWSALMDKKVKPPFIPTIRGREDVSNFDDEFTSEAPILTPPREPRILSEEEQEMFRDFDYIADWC

[1] = read-out: percent of catalytic activity of the Kinase in the presence of compound as compared to the solvent control (DMSO): S6K

Row | SMILES | percent of catalytic activity of the Kinase in the presence of compound as compared to the solvent control (DMSO): SGK (SGK; 50 μM compound) | remaining activity at 200 µM (SGK; 200 μM compound) | percent of catalytic activity of the Kinase in the presence of compound as compared to the solvent control (DMSO): PKA (PKA; 50 μM compound) | percent of catalytic activity of the Kinase in the presence of compound as compared to the solvent control (DMSO): PKA (PKA; 200 μM compound) | remaining activity at 200 µM (S6K; [1]) | remaining activity at 50 µM (PKCζ; 50 μM compound) | remaining activity at 200 µM (PKCζ; 200 μM compound) | percent of catalytic activity of the Kinase in the presence of compound as compared to the solvent control (DMSO): PRK2 (PRK2; 50 μM compound) | percent of catalytic activity of the Kinase in the presence of compound as compared to the solvent control (DMSO): PRK2 (PRK2; 200 μM compound) | percent of catalytic activity of the Kinase in the presence of compound as compared to the solvent control (DMSO): S6K (S6K; 50 μM compound) | percent of catalytic activity of the Kinase in the presence of compound as compared to the solvent control (DMSO): PKBβ (PKBβ; 50 μM compound) | percent of catalytic activity of the Kinase in the presence of compound as compared to the solvent control (DMSO): PKBβ (PKBβ; 200 μM compound) | activity at 50 µM (PDK1; 50 μM compound) | activity at 200 µM (PDK1; 200 μM compound) | percent of catalytic activity of the Kinase in the presence of compound as compared to the solvent control (DMSO): PKCζ (PKCζ; 50 μM compound) | also measured
1 | O=C(O)/C=C(/c1ccccc1)c1cc2cc(Cl)ccc2s1 [PS 118, (Z)-3-(5-Chloro-2-benzothiophenyl)-3-phenylacrylic acid] | no effect | ~20% | no effect | no effect | 25% | 10 to 20% | 0% | no effect | no effect | – | – | – | – | – | – | remaining activity at 50 µM (S6K; 50 μM compound, read-out: percent of catalytic activity of the Kinase in the presence of compound as compared to the solvent control (DMSO): S6K): 85%; remaining activity at 50 µM (PKBβ; 50 μM compound, read-out: percent of catalytic activity of the Kinase in the presence of compound as compared to the solvent control (DMSO): PKBβ): 90%; remaining activity at 200 µM (PKBβ; 200 μM compound, read-out: percent of catalytic activity of the Kinase in the presence of compound as compared to the solvent control (DMSO): PKBβ): 25%; percent of catalytic activity of the Kinase in the presence of compound as compared to the solvent control (DMSO): PDK1 (PDK1; 50 μM compound): no effect; percent of catalytic activity of the Kinase in the presence of compound as compared to the solvent control (DMSO): PDK1 (PDK1; 200 μM compound): no effect; AC50 PDK1 (μM) (PDK1; concentration of the compound required to activate half maximally, n.e.: no effect): n.e.; max. activation of PDK1 (fold) (PDK1; maximum activation achievable, compared to the basal activity of PDK1, n.e.: no effect): n.e.
2 | O=C(O)CC(CC(=O)N1Cc2ccc(Cl)cc2C1)c1ccc(Cl)cc1 (stereo not shown) [PS 141] | no effect | 70 to 80% | no effect | no effect | ~80% | 80% | 30 to 40% | no effect | no effect | no effect | no effect | no effect | 300% | 400% | – | –
3 | O=C(O)CC(C(=O)N1CCc2ccccc2C1)c1ccc(Cl)cc1 (stereo not shown) [PS 152] | no effect | – | no effect | no effect | ~80% | – | – | no effect | no effect | no effect | no effect | no effect | 240% | 310% | no effect | percent of catalytic activity of the Kinase in the presence of compound as compared to the solvent control (DMSO): SGK (SGK; 200 μM compound): no effect; percent of catalytic activity of the Kinase in the presence of compound as compared to the solvent control (DMSO): PKCζ (PKCζ; 200 μM compound): no effect
4 | O=C(O)CC(Cc1nc2cc(Cl)c(Cl)cc2[nH]1)c1ccccc1 (stereo not shown) [PS 163, 4-(5,6-Dichloro-2-benzimidazolyl)-3-phenylbutanoic acid] | no effect | ~60% | no effect | no effect | ~50% | – | 50% | no effect | no effect | no effect | no effect | no effect | ~250% | > 250% | no effect | –
